From publication PMC3113660 (Journal of medicinal chemistry, 2010)
Where a name gives a salt, the structure may show the parent alone. Read-outs that look alike come from different tables or passages of the source.

Legend:
[1] = system: Trypanosoma brucei rhodesiense (STIB900); experiment: In vitro growth inhibition assay of T. brucei rhodesiense; assay type: cell-based
[2] = system: Plasmodium falciparum (K1, resistant to chloroquine); experiment: In vitro growth inhibition assay of P. falciparum; assay type: cell-based; details: for IC50: Plasmodium falciparum, K1, read-out: antiplasmodial IC50, P. falciparum, in vitro
[3] = system: T. brucei rhodesiense STIB900; assay type: in vivo, mice; details: for toxicity in the in vivo model (mice died due to toxicity): infected mice; for cures: number of mice that survive and are parasite free for 60 days
[4] = relative to bis(N-isopropyl)amidine 32

CC(C)NC(=N)c1cccc(-c2cn(-c3cccc(C(=N)NC(C)C)c3)nn2)c1.Cl.Cl [Compound 2, 1,4-Bis(3-N-isopropylamidinophenyl)-1H-1,2,3-triazole Dihydrochloride]
fold less active against T. brucei rhodesiense ([1]; relative to diamidine 1): ~170 fold

Cl.Cl.c1cc(C2=NCCN2)cc(-c2cn(-c3cccc(C4=NCCN4)c3)nn2)c1 [Compound 3, 1,4-Bis[3-(4,5-dihydro-1H-imidazol-2-yl)phenyl]-1H-1,2,3-triazole Dihydrochloride]
fold less active against T. brucei rhodesiense ([1]; relative to diamidine 1): ~170 fold

COc1ccc(C(=N)N)cc1-n1cc(-c2cccc(C(=N)N)c2)nn1.Cl.Cl [Compound 4, 1-(5-Amidino-2-methoxyphenyl)-4-(3-amidinophenyl)-1H-1,2,3-triazole Dihydrochloride]
IC50 [2]: < 0.058 µM | fold as active against T. brucei rhodesiense ([1]; relative to 2-O-demethylated analogue 10): 1000 fold

COc1ccc(C2=NCCN2)cc1-n1cc(-c2cccc(C3=NCCN3)c2)nn1.Cl.Cl [Compound 6, 1-[5-(4,5-Dihydro-1H-imidazol-2-yl)-2-methoxyphenyl]-4-[3-(4,5-dihydro-1H-imidazol-2-yl)phenyl]-1H-1,2,3-triazole Dihydrochloride]
IC50 [2]: < 0.058 µM | fold more active against P. falciparum ([2]; relative to diimidazoline 3): 12 fold | fold as active against T. brucei rhodesiense ([1]; relative to 2-O-demethylated analogue 12): 13 fold

COc1ccc(C(=N)N)cc1-c1cn(-c2cccc(C(=N)N)c2)nn1.Cl.Cl [Compound 7, 4-(5-Amidino-2-methoxyphenyl)-1-(3-amidinophenyl)-1H-1,2,3-triazole Dihydrochloride]
IC50 [2]: < 0.058 µM | fold less active against T. brucei rhodesiense ([1]; relative to diamidine 1): 20 fold

Cl.Cl.N=C(N)c1cccc(-c2cn(-c3cc(C(=N)N)ccc3O)nn2)c1 [Compound 10, 1-(5-Amidino-2-hydroxyphenyl)-4-(3-amidinophenyl)-1H-1,2,3-triazole Dihydrochloride]
fold less potent against P. falciparum ([2]; relative to 2-methoxy analogue 4): 320 fold | fold less potent against P. falciparum ([2]; relative to dication 1): 425 fold | fold less active against T. brucei rhodesiense ([1]; relative to diamidine 1): 600 fold

Cl.Cl.Oc1ccc(C2=NCCN2)cc1-n1cc(-c2cccc(C3=NCCN3)c2)nn1 [Compound 12, 1-[5-(4,5-Dihydro-1H-imidazol-2-yl)-2-hydroxyphenyl]-4-[3-(4,5-dihydro-1H-imidazol-2-yl)phenyl]-1H-1,2,3-triazole Dihydrochloride]
fold less active against T. brucei rhodesiense ([1]; relative to diimidazoline 3): 7 fold

CC(C)NC(=N)c1ccc(-n2cc(-c3cccc(C(=N)NC(C)C)c3)nn2)cc1.Cl.Cl [Compound 17, 1-(4-N-Isopropylamidinophenyl)-4-(3-N-isopropylamidinophenyl)-1H-1,2,3-triazole Dihydrochloride]
IC50 [2]: < 0.058 µM | fold less active against T. brucei rhodesiense ([1]; relative to diamidine 16): 67 fold

Cl.Cl.c1cc(C2=NCCN2)cc(-c2cn(-c3ccc(C4=NCCN4)cc3)nn2)c1 [Compound 18, 1-[4-(4,5-Dihydro-1H-imidazol-2-yl)phenyl]-4-(3-(4,5-dihydro-1H-imidazol-2-yl)phenyl)-1H-1,2,3-triazole Dihydrochloride]
fold less active against T. brucei rhodesiense ([1]; relative to diamidine 16): 25 fold

COc1cc(C(=N)NC(C)C)ccc1-n1cc(-c2cccc(C(=N)NC(C)C)c2)nn1.Cl.Cl [Compound 20, 1-(4-N-Isopropylamidino-2-methoxyphenyl)-4-(3-N-isopropylamidinophenyl)-1H-1,2,3-triazole Dihydrochloride]
IC50 [2]: < 0.058 µM | fold less active against T. brucei rhodesiense ([1]; relative to congener 19): 178 fold

COc1cc(C2=NCCN2)ccc1-n1cc(-c2cccc(C3=NCCN3)c2)nn1.Cl.Cl [Compound 21, 1-[4-(4,5-Dihydro-1H-imidazol-2-yl)-2-methoxyphenyl]-4-[3-(4,5-dihydro-1H-imidazol-2-yl)phenyl]-1H-1,2,3-triazole Dihydrochloride]
fold less active against T. brucei rhodesiense ([1]; relative to congener 19): 170 fold

COc1ccc(C(=N)NC(C)C)cc1-c1cn(-c2ccc(C(=N)NC(C)C)cc2)nn1.Cl.Cl [Compound 23, 4-(5-N-Isopropylamidino-2-methoxyphenyl)-1-(4-N-isopropylamidinophenyl)-1H-1,2,3-triazole Dihydrochloride]
toxicity in the in vivo model (mice died due to toxicity) ([3]; 4 × 5 mg/kg ip, 5 mg/kg): toxic | IC50 [2]: < 0.058 µM

Cl.Cl.N=C(N)c1cccc(-c2cn(-c3ccc(C(=N)N)cc3O)nn2)c1 [Compound 25, 1-(4-Amidino-2-hydroxyphenyl)-4-(3-amidinophenyl)-1H-1,2,3-triazole Dihydrochloride]
fold less active against T. brucei rhodesiense ([1]; relative to diamidine 16): ~22 fold

Cl.Cl.N=C(N)c1ccc(-c2cn(-c3cccc(C(=N)N)c3)nn2)cc1 [Compound 31, 1-(3-Amidinophenyl)-4-(4-amidinophenyl)-1H-1,2,3-triazole Dihydrochloride]
cures ([3]; 4 × 5 mg/kg ip): curing one out of four mice

CC(C)NC(=N)c1ccc(-c2cn(-c3cccc(C(=N)NC(C)C)c3)nn2)cc1.Cl.Cl [Compound 32, 1-(3-N-Isopropylamidinophenyl)-4-(4-N-isopropylamidinophenyl)-1H-1,2,3-triazole Dihydrochloride]
IC50 [2]: < 0.058 µM | fold less active against T. brucei rhodesiense ([1]; relative to diamidine 31): 77 fold

Cl.Cl.c1cc(C2=NCCN2)cc(-n2cc(-c3ccc(C4=NCCN4)cc3)nn2)c1 [Compound 33, 1-[3-(4,5-Dihydro-1H-imidazol-2-yl)phenyl]-4-[4-(4,5-dihydro-1H-imidazol-2-yl)phenyl]-1H-1,2,3-triazole Dihydrochloride]
fold less active against T. brucei rhodesiense ([1]; relative to diamidine 31): 77 fold

COc1cc(C(=N)N)ccc1-c1cn(-c2cccc(C(=N)N)c2)nn1.Cl.Cl [Compound 37, 4-(4-Amidino-2-methoxyphenyl)-1-(3-amidinophenyl)-1H-1,2,3-triazole Dihydrochloride]
cures ([3]; 4 × 1 mg/kg ip): no cures | IC50 [2]: < 0.058 µM

COc1cc(C(=N)NC(C)C)ccc1-c1cn(-c2cccc(C(=N)NC(C)C)c2)nn1.Cl.Cl [Compound 38, 4-(4-N-Isopropylamidino-2-methoxyphenyl)-1-(3-N-isopropylamidinophenyl)-1H-1,2,3-triazole Dihydrochloride]
IC50 [2]: < 0.058 µM | fold less active against T. brucei rhodesiense ([1]; relative to diamidine 37): 141 fold

COc1cc(C2=NCCN2)ccc1-c1cn(-c2cccc(C3=NCCN3)c2)nn1.Cl.Cl [Compound 39, 4-[4-(4,5-Dihydro-1H-imidazol-2-yl)-2-methoxyphenyl]-1-[3-(4,5-dihydro-1H-imidazol-2-yl)phenyl]-1H-1,2,3-triazole Dihydrochloride]
fold less active against T. brucei rhodesiense ([1]; relative to diamidine 37): 804 fold

CC(C)NC(=N)c1ccc(-c2cn(-c3cc(C(=N)NC(C)C)ccc3O)nn2)cc1.Cl.Cl [Compound 41, 1-(5-N-Isopropylamidino-2-hydroxyphenyl)-4-(4-N-isopropylamidinophenyl)-1H-1,2,3-triazole Dihydrochloride]
fold less active against P. falciparum [2, 4]: 123 fold | fold less active against T. brucei rhodesiense [1, 4]: 33 fold

Cl.Cl.Oc1ccc(C2=NCCN2)cc1-n1cc(-c2ccc(C3=NCCN3)cc2)nn1 [Compound 42, 1-[5-(4,5-Dihydro-1H-imidazol-2-yl)-2-hydroxyphenyl]-4-[4-(4,5-dihydro-1H-imidazol-2-yl)phenyl]-1H-1,2,3-triazole Dihydrochloride]
fold less active against T. brucei rhodesiense ([1]; relative to diimidazoline 33): 43 fold

Cl.Cl.N=C(N)c1cccc(-n2cc(-c3ccc(C(=N)N)cc3O)nn2)c1 [Compound 43, 4-(4-Amidino-2-hydroxyphenyl)-1-(3-amidinophenyl)-1H-1,2,3-triazole Dihydrochloride]
cures ([3]; 4 × 5 mg/kg ip): curing at least two out of four animals | IC50 [2]: < 0.058 µM | SIT, selectivity index for T. brucei rhodesiense ([1]; ratio IC50 (L6)/IC50 (T. brucei rhodesiense)): >26250

CC(C)NC(=N)c1ccc(-c2cn(-c3ccc(C(=N)NC(C)C)cc3)nn2)cc1.Cl.Cl [Compound 47, 1,4-Bis(4-N-isopropylamidinophenyl)-1H-1,2,3-triazole Dihydrochloride]
toxicity in the in vivo model (mice died due to toxicity) ([3]; 4 × 5 mg/kg ip): toxic | IC50 [2]: < 0.058 µM

COc1cc(C2=NCCN2)ccc1-n1cc(-c2ccc(C3=NCCN3)cc2)nn1 [Compound 51, 1-[4-(4,5-Dihydro-1H-imidazol-2-yl)-2-methoxyphenyl]-4-[4-(4,5-dihydro-1H-imidazol-2-yl)phenyl]-1H-1,2,3-triazole Dihydrochloride]
IC50 [2]: < 0.058 µM

COc1cc(C(=N)N)ccc1-c1cn(-c2ccc(C(=N)N)cc2)nn1.Cl.Cl [Compound 52, 4-(4-Amidino-2-methoxyphenyl)-1-(4-amidinophenyl)-1H-1,2,3-triazole Dihydrochloride]
cures ([3]; 4 × 5 mg/kg ip): curing at least two out of four animals

COc1cc(C(=N)NC(C)C)ccc1-c1cn(-c2ccc(C(=N)NC(C)C)cc2)nn1 [Compound 53, 4-(4-N-Isopropylamidino-2-methoxyphenyl)-1-(4-N-isopropylamidinophenyl)-1H-1,2,3-triazole Dihydrochloride]
IC50 [2]: < 0.058 µM

COc1cc(C2=NCCN2)ccc1-c1cn(-c2ccc(C3=NCCN3)cc2)nn1 [Compound 54, 4-[4-(4,5-Dihydro-1H-imidazol-2-yl)-2-methoxyphenyl]-1-[4-(4,5-dihydro-1H-imidazol-2-yl)phenyl]-1H-1,2,3-triazole Dihydrochloride]
IC50 [2]: < 0.058 µM

Cl.Cl.N=C(N)c1ccc(-c2cn(-c3ccc(C(=N)N)cc3O)nn2)cc1 [Compound 55, 1-(4-Amidino-2-hydroxyphenyl)-4-(4-amidinophenyl)-1H-1,2,3-triazole Dihydrochloride]
fold less active against T. brucei rhodesiense ([1]; relative to dication 46): 125 fold

Oc1cc(C2=NCCN2)ccc1-n1cc(-c2ccc(C3=NCCN3)cc2)nn1 [Compound 57, 1-[4-(4,5-Dihydro-1H-imidazol-2-yl)-2-hydroxyphenyl]-4-[4-(4,5-dihydro-1H-imidazol-2-yl)phenyl]-1H-1,2,3-triazole Dihydrochloride]
IC50 [2]: < 0.058 µM

CC(C)NC(=N)c1ccc(-n2cc(-c3ccc(C(=N)NC(C)C)cc3O)nn2)cc1.Cl.Cl [Compound 59, 4-(4-N-Isopropylamidino-2-hydroxyphenyl)-1-(4-N-isopropylamidinophenyl)-1H-1,2,3-triazole Dihydrochloride]
IC50 [2]: < 0.058 µM
